These results are taken from patent US10189803B2, “Synthesis of therapeutic and diagnostic drugs centered on regioselective and stereoselective ring opening of aziridinium ions” (ILLINOIS INSTITUTE OF TECHNOLOGY, priority 2008, dated 2019).

Data set [1] concerns HT29 cells. Briefly: Antiproliferative activity, MTS assay, HT29 cells. The class given is cell-based, Human. The note with it: Homo sapiens, HT-29, 72 h incubation. How it is done: (§1) Cell culture Human cervix HeLa cell line was obtained from ATCC (Rockville, Md.) and cultured in minimum essential medium (MEM) with L-glutamine (2 mM), Earle's BSS and sodium bicarbonate (1.5 g/L), supplemented with 10% fetal bovine serum (FBS), non-essential amino acids (0.1 mM), sodium pyruvate (1 mM) and antibiotic/antimycotic solution in a humidified atmosphere with 5% CO2 at 37° C. […] Lung fibroblast MRC-5 cell line was obtained from ATCC (Rockville, Md.) and cultured in ATCC formulated EMEM, supplemented with 10% fetal bovine serum (FBS) in a humidified atmosphere with 5% CO2 at 37° C.
(§2) Antiproliferative Activity. Cells were seeded onto 96-well plate at density of 2,000 cells for Hela cells or 5,000 cells for HT29 cells or 5,000 cells for MRC-5 per well in 0.1 mL complete medium and allowed to attach for 24 h. Varying concentrations of the test compounds in the final volume of 0.1 mL complete medium were then added in at least five series dilutions and incubated for 72 h. To measure cell proliferation, the Cell Titer 96 aqueous nonreactive cell proliferation assay (Promega Life Sciences, Madison, Wis.) was used according to the manufacturer's instructions. Briefly, MTS (2 mg/mL) and PMS (0.92 mg/ml) were mixed in a ratio of 20:1. An aliquot (20 μL) of the MTS/PMS mixture was added into each well, and the plate was incubated for 3 h at 37° C. Optical absorbance at 490 nm was then recorded with an enzyme-linked immunosorbent assay (ELISA) microtiter plate reader (Biotek). Each experiment was done at least in triplicate. Antiproliferative activity of the test compounds was expressed as the fraction of optical densities of treated the cells relative to the untreated solvent controls.^31 The data were plotted in GraphPad Prizm 3.0. Nonlinear regression analysis was used to determine IC50 values.
(§3) Cell culture. Human cervix HeLa cell line was obtained from ATCC (Rockville, Md.) and cultured in minimum essential medium (MEM) with L-glutamine (2 mM), Earle's BSS and sodium bicarbonate (1.5 g/L), supplemented with 10% fetal bovine serum (FBS), non-essential amino acids (0.1 mM), sodium pyruvate (1 mM) and antibiotic/antimycotic solution in a humidified atmosphere with 5% CO2 at 37° C.
as §2, with “activity.” for “Activity.”, “cells” for “cells or 5,000 cells for MRC-5”, “controls.” for “controls.^31”
For orientation: Formazan colour is commonly taken as a measure of viable cells.

The test system of data set [2] is Hela cells. Put plainly: Antiproliferative activity, MTS assay, HeLa cells. The note with it: Homo sapiens; 72 h incubation, MTS. The class given is cell-based, Human. How it is done:
as §1, §2, §3
as §2, with “activity.” for “Activity.”, “cells” for “cells or 5,000 cells for MRC-5”, “controls.” for “controls.^31”

A short description of data set [3]: TEM measurement of self-assembled micelles. It is filed as physicochemical. To be noted: aqueous solution. An excerpt:
Amphifacial cholic acid is a good targeting moiety, and its conjugation to MR contrast agent is expected to form helical globular aggregates with a favorable pharmacokinetic and relaxivity profile. In FIG. 41, cholic acid was converted to an activated amide 1, which was further reacted with a functionalized NE3TA (2) containing an amino group to provide Compound 3. The t-butyl group of Compound 3 was removed by treatment with 4M HCl in 1,4-dioxane to provide CA-NE3TA (4). […] The Gd(III) complex of CA-NE3TA was prepared as described above. Gd(CA-NE3TA) self-assembles into nano-sized micells as evidenced by TEM measurement (˜10 nm, FIG. 24). […] Aggregation of Gd(CA-NE3TA) as evidenced by TEM images is proposed to result from heating during the complexation reaction and/or gadolinium induced cross linking. T1 relaxivity of Gd(CA-NE3TA) in aqueous solution (0.2 mM) was measured to 10.85 mM^−1 s^−1. […] This increase in relaxivity may be a result of slower molecular rotation due to aggregation of the complex as evidenced by the TEM image.
TEM measurement. Stock solutions of compounds CA-NE3TA and Gd(CA-NE3TA) were prepared in 18 MΩ H2O and diluted to the final concentrations of CA-NE3TA (10 μM, pH=5) and Gd(CA-NE3TA) (100 μM or 10 μM, pH=7). In triplicate, a 5 μL aliquot of CA-NE3TA solution was placed on a gold-coated grid (300 mesh, formvar support film, Cat #FF300-Au, Electron Microscopy Sciences, PA). The sample on the grid was air-dried for 5-10 min after each deposition. The grid was air-dried overnight, transferred into a desiccator, and further dried in vacuo for 1.5 days. The sample of Gd(CA-NE3TA) (10 μM) was prepared as described above. […]
TEM images of CDCA-NE3TA indicate that the hydrophobic bile acid conjugated to NE3TA forms discrete semi-square micelles in nanometer size (˜15-60 nm, FIG. 29). […] Aza cholic acid 10 was prepared starting from the readily available cholic acid according to the literature. […]

The nature of data set [4]: T1 relaxivity of Gd(III) complexes (Bruker mq60 NMR analyzer). It is filed as physicochemical. The method, then:
Gd(NE3TA) and Gd(NE3TA-Bn) were synthesized by reacting GdCl3 with NE3TA and NE3TA-Bn, respectively. NE3TA or NE3TA-Bn were mixed with GdCl3 in a molar ratio of 1 to 0.9, and the resulting mixture at pH 7 was heated to 90° C. and stirred until no free Gd(III) ions were detected using an ArsenazoIII (AAIII) assay. Relaxivity of the aqueous […] complexes (pH 7) was measured on a Bruker MQ60 NMR analyzer, and the concentration of the Gd(III) complexes was measured by ICP-MS. […] NE3TA was successfully conjugated with the most common bile acid, cholic acid (FIG. 41).
(§4) Relaxivity Measurements. Relaxivity measurements were acquired by taking the slope of a plot of 1/T1 (s^−1) versus concentration (mM). The longitudinal water proton relaxation times (T1) were determined using a Bruker mq60 NMR (Bruker Canada, Milton, ON, Canada) analyzer operating at 59.97 MHz and 37° C. The agent was added to Millipore water and serially diluted by 0.5 to give a series of 5 concentrations (500 μL total volume) for each relaxivity trial. The T1 was determined using an inversion recovery pulse sequence with 10 different pulse separations per sample, 4 repetitions per echo time, phase cycling, and a recycle delay that is ≥5 times the T1 of each given sample. All curves were fit using a monoexponential curve fitting formula.
Relaxivity of the aqueous Gd(III) complexes (˜pH 7) were measured on a Bruker MQ60 NMR analyzer, and the concentration of the Gd(III) complexes were measured by ICP-MS. […] As mentioned above, the on and off binding to Gd(III) of one of the pendant coordinates would have resulted enhanced relaxivity of Gd(C-NETA) compared to Gd(C-DOTA). Among the evaluated Gd(III) complexes, Gd(C-NE3TA) gives the highest T1 relaxivity at 60 MHz, probably due to increase in q. The relaxation rates for the Gd(III) chelates are dominated by the inner-sphere dipolar coupling between the coordinated water molecule and the paramagnetic Gd(III). The measured relaxivities arise from the exchange between the coordinated water molecule and the surrounding water molecules in solution. […] No indication of Gd(III) dissociation is evident from the relaxivity data, which is in agreement with the in vitro serum stability and in vivo biodistribution studies.
as §4, with “The T1 relaxivity was determined” for “The T1 was determined”

For data set [5] the following is noted: cited from earlier work.

By IC50 is commonly meant the concentration needed to halve the response being measured. High values mean weaker potency in that assay, low ones greater potency in that assay.

Like-named read-outs stand apart in the source and are kept apart here.

`CC(CCC(=O)Nc1ccc(CC(CN2CCN(CC(=O)O)CCN(CC(=O)O)CC2)NCC(=O)O)cc1)C1CCC2C3C(O)CC4CC(O)CCC4(C)C3CCC12C` (stereo not drawn) [CDCA-NE3TA, [4-Carboxymethyl-7-(2-(carboxymethyl-amino)-3-{4-[4-(3,7-dihydroxy-10,13-dimethylhexadecahydro-cyclopenta[a]phenanthren-17-yl)-pentanoylamino]-phenyl}-propyl)-[1,4,7]triazonan-1-yl]-acetic acid]: the IC50 worked out at 15.5 ± 3.2 µM in data set [1] and 24.6 ± 1 µM in data set [2]. For the same compound, the “micelle size (TEM)” value in data set [3] is 15-60 nm.
As for `O=C(O)CNC(Cc1ccc([N+](=O)[O-])cc1)CN1CCN(CC(=O)O)CCN(CC(=O)O)CC1.[Gd]` (stereo not drawn) [Gd(C-NE3TA)], in data set [4] (aqueous Gd(III) complexes, ~pH 7, 60 MHz), the “T1 relaxivity of Gd(III) complexes of bifunctional ligands” value amounted to 5.89 mM⁻¹ s⁻¹.
Consider `O=C([O-])CN1CCN(CCN(CC(=O)[O-])CC(=O)[O-])CCN(CC(=O)[O-])CC1.[Bi+3]` [^205/6Bi-NETA], for which the retention in liver was 5.93±0.78 % ID/g in data set [5] (0 h) and 7.31±1.521 % ID/g in data set [5] (24 h).
Turning to `CC(CCC(=O)Nc1ccc(CC(CN2CCN(CC(=O)O)CCN(CC(=O)O)CC2)NCC(=O)O)cc1)C1CCC2C3C(O)CC4CC(O)CCC4(C)C3CC(O)C12C.[Gd]` (stereo not drawn) [Gd(CA-NE3TA)], the T1 relaxivity in data set [4] (aqueous solution (0.2 mM)) was determined as 10.85 mM⁻¹ s⁻¹. Also, the “micelle size (TEM)” value in data set [3] is recorded as about 10 nm.
Take `O=C(O)CN1CCN(CCN(CC(=O)O)CC(=O)O)CCN(CC(=O)O)CC1.[177Lu]` [^177Lu-NETA]: the “organ uptake and blood clearance (in words)” value in data set [5] (in vivo) is “very low organ uptake and rapid blood clearance”.
For the compound `CC(CCC(=O)Nc1ccc(CC(CN2CCN(CC(=O)O)CCN(CC(=O)O)CC2)NCC(=O)O)cc1)C1CCC2C3C(O)CC4CC(O)CCC4(C)C3CC(O)C12C` (stereo not drawn) [CA-NE3TA, [4-Carboxymethyl-7-(2-(carboxymethyl-amino)-3-{4-[4-(3,7,12-trihydroxy-10,13-dimethyl-hexadecahydro-cyclopenta[a]phenanthren-17-yl)-pentanoylamino]-phenyl}-propyl)-[1,4,7]triazonan-1-yl]-acetic acid], the 50% inhibitory concentration (IC50) in data set [1] amounted to 8.3 ± 2.4 µM; in data set [2], 24 ± 2.7 µM. In data set [3], the “micelle size (TEM)” value was 10-50 nm.
